Columns and labels:
[1] = system: DLD-1 BRCA2(−/−); experiment: Cell growth inhibition assay (CellTiter-Glo cell viability, 7 days); format: cell-based; conditions: Homo sapiens, 168 h, DLD-1 BRCA2(-/-) cells
[2] = system: MDA-MB-436 (mutated BRCA1) cell lines; experiment: as above; format: cell-based; conditions: Homo sapiens, 168 h, MDA-MB-436 cells

Compound	EC50 [1]	EC50 [2]
CNC(=O)c1ccc(N2CCN(Cc3cnc4c(C)c(C(F)F)c(=O)[nH]c4c3)CC2)cn1 [Example 133]	1 nM	0.87 nM
CCc1cc2ncc(CN3CCN(c4cnc(C(=O)NC5CC5)c(F)c4)CC3)cc2[nH]c1=O [Example 105]	3.2 nM	1.8 nM
CNC(=O)c1ccc(N2CCN(Cc3cnc4c(C)c(C)c(=O)[nH]c4c3)CC2)cn1 [Example 95]	3.9 nM	2.9 nM
CCc1cc2ncc(CN3CCN(c4ccc(C(=O)NCCC#N)nc4)CC3)cc2[nH]c1=O [Example 50]	4.5 nM	2.1 nM
CNC(=O)c1ccc(N2CCN(Cc3cnc4cc(C)c(=O)[nH]c4c3)CC2)c(C#N)n1 [Example 37]	1.4 nM	0.5 nM
CCc1cc2ncc(CN3CCN(c4ccc(C(=O)NC5COC5)nc4)CC3)cc2[nH]c1=O [Example 46]	3.7 nM	1.2 nM
CCc1cc2ncc(CN3CCN(c4ccc(C(=O)NC[C@H]5CCOC5)nc4)CC3)cc2[nH]c1=O [Example 41]	2.4 nM	1.9 nM
CCc1cc2ncc(CN3CCN(c4ccc(C(=O)N[C@H]5CCCOC5)nc4)CC3)cc2[nH]c1=O (single isomer, unassigned) [Example 53]	2.4 nM	0.92 nM
CCc1cc2ncc(CN3CCN(c4ccc(C(=O)NC5CCOCC5)nc4)CC3)cc2[nH]c1=O [Example 44]	7.4 nM	5.3 nM
CNC(=O)c1ccc(N2CCN(Cc3cnc4c(C)c(Cl)c(=O)[nH]c4c3)CC2)cn1 [Example 148, 5-{4-[(7-chloro-8-methyl-6-oxo-5H-1,5-naphthyridin-3-yl)methyl]piperazin-1-yl}-N-methylpyridine-2-carboxamide]	2 nM	1.5 nM
[2H]C([2H])([2H])C([2H])([2H])NC(=O)c1ccc(N2CCN(Cc3cnc4cc(C5CC5)c(=O)[nH]c4c3)CC2)n(C)c1=O [Example 123]	15 nM	5.6 nM
CNC(=O)c1ccc(N2CCN(Cc3cnc4c(C(F)F)c(C)c(=O)[nH]c4c3)CC2)cn1 [Example 151]	16 nM	28 nM
CCc1cc2ncc(CN3CCN(c4ccc(C(=O)NC)c(F)c4C#N)CC3)cc2[nH]c1=O [Example 145]	1.9 nM	1.1 nM
CCc1cc2ncc(CN3CCN(c4ccc(C(=O)N[C@H]5CCC[C@@H]5O)nc4)CC3)cc2[nH]c1=O [Example 49]	5.5 nM	2.4 nM
Cc1cc2ncc([C@H](C)N3CCN(c4ccc(C(=O)NC5CC5)nc4)CC3)cc2[nH]c1=O (single isomer, unassigned) [Example 126]	14 nM	4.3 nM
CCc1cc2ncc(CN3CCN(c4ccc(C(=O)NC(C)C)nc4)CC3)cc2[nH]c1=O [Example 43]	2.4 nM	3.2 nM
CNC(=O)c1ccc(C2=CCN(Cc3cnc4cc(C5CC5)c(=O)[nH]c4c3)CC2)cn1 [Example 64]	0.92 nM	0.64 nM
CCc1cc2ncc(CN3CCN(c4ccc(C(=O)N[C@@H]5CCOC5)nc4)CC3)cc2[nH]c1=O [Example 48]	2.7 nM	1.7 nM
CNC(=O)c1ccc(N2CCN([C@H](C)c3cnc4cc(C)c(=O)[nH]c4c3)C[C@H]2C)cn1 (single isomer, unassigned) [Example 122]	46 nM	11 nM
CCc1cc2ncc([C@H](C)N3CCN(c4ccc(C(=O)NC)nc4)CC3)cc2[nH]c1=O (single isomer, unassigned) [Example 21]	1.7 nM	0.9 nM
Cc1cc2ncc(CN3CCN(c4cnc(C(=O)NC5CC5)c(F)c4)CC3)cc2[nH]c1=O [Example 108]	31 nM	14 nM
CNC(=O)c1ccc(N2CCN([C@@H](C)c3cnc4cc(C)c(=O)[nH]c4c3)C[C@H]2C)cn1 (single isomer, unassigned) [Example 121]	43 nM	35 nM
CCc1cc2ncc(CN3CCN(c4cnc(C(=O)NC)c(F)c4)[C@H]4C[C@H]43)cc2[nH]c1=O (single isomer, unassigned) [Example 69]	7.3 nM	4.4 nM
CCc1cc2ncc(CN3CCN(c4cnc(C(=O)NC)c(F)c4)[C@H](C)C3)cc2[nH]c1=O [Example 39]	3.3 nM	2.7 nM
CCc1cc2ncc(CN3CC(N(C)c4ccc(C(=O)NC)nc4)C3)cc2[nH]c1=O [Example 26, 5-({1-[(7-ethyl-6-oxo-5H-1,5-naphthyridin-3-yl)methyl]azetidin-3-yl}(methyl)amino)-N-methylpyridine-2-carboxamide]	33 nM	39 nM

Compound	EC50 [1]	EC50 [2]
CCc1cc2ncc(CN3CCN(c4cccnc4C#N)CC3)cc2[nH]c1=O [Example 128, 3-{4-[(7-ethyl-6-oxo-5H-1,5-naphthyridin-3-yl)methyl]piperazin-1-yl}pyridine-2-carbonitrile]	4.8 nM	4.2 nM
CCc1cc2ncc(CN3CCN(c4ccc(-c5cnc[nH]5)c(F)c4)CC3)cc2[nH]c1=O [Example 70]	5.5 nM	2.6 nM
Cc1cc2ncc(CN3CCN(c4ccc(C(=O)NC5CC5)nc4)[C@@H]4C[C@@H]43)cc2[nH]c1=O (single isomer, unassigned) [Example 109]	37 nM	14 nM
CNC(=O)c1ccc(N2CCN(Cc3cnc4cc(C5CC(F)(F)C5)c(=O)[nH]c4c3)CC2)cn1 [Example 140]	4.3 nM	5.8 nM
N#CC12CC(N3CCN(Cc4cnc5cc(Cl)c(=O)[nH]c5c4)CC3)(C1)C2 [Example 157]	61 nM	41 nM
O=C(NC1CC1)c1ccc(N2CCN(Cc3cnc4cc(Cl)c(=O)[nH]c4c3)CC2)c(F)n1 [Example 152]	1.1 nM	0.51 nM
CCc1cc2ncc(CN3CCN(c4ccc(C(=O)N[C@H]5C[C@](C)(O)C5)nc4)CC3)cc2[nH]c1=O [Example 55]	11 nM	1.4 nM
CCc1cc2ncc(CN3CCN(c4ccc(-n5cccn5)nc4)CC3)cc2[nH]c1=O [Example 92]	11 nM	10 nM
CNC(=O)c1ncc(N2CCN(Cc3cnc4cc(C5CC5)c(=O)[nH]c4c3)CC2)cc1F [Example 100]	3.9 nM	2.6 nM
C#Cc1ccc(N2CCN(Cc3cnc4cc(CC)c(=O)[nH]c4c3)CC2)nc1 [Example 83]	1.5 nM	1.4 nM
CCc1nc2cnc(CN3CCN(c4ccc(C(=O)NC)nc4)CC3)cc2[nH]c1=O [Example 87]	6.5 nM	5.3 nM
CNC(=O)c1ccc(N2CCN(Cc3cnc4cc(C)c(=O)[nH]c4c3)CC2)c(C#N)c1 [Example 38]	7.6 nM	5.3 nM
N#Cc1ncccc1N1CCN(Cc2cnc3cc(C4CC4)c(=O)[nH]c3c2)CC1 [Example 129]	15 nM	7 nM
CCc1cc2ncc(CN3CCN(c4ccc(C(=O)N[C@H](C)CO)nc4)CC3)cc2[nH]c1=O [Example 59]	16 nM	7.8 nM
CCc1cc2ncc(CN3CCN(c4ccc(NC(=O)[C@H]5CCO5)nc4)CC3)cc2[nH]c1=O (racemic) [Example 103]	6.6 nM	5.2 nM
[2H]C([2H])([2H])NC(=O)c1ccc(N2CCN(Cc3cnc4cc(C5CC5)c(=O)[nH]c4c3)CC2)cn1 [Example 67]	1.8 nM	1.1 nM
CCc1cc2ncc(CN3CCN(c4ccc(NC(=O)N5CCOCC5)nc4)CC3)cc2[nH]c1=O [Example 101]	17 nM	9.8 nM
CNC(=O)c1ccc(N2CCN(Cc3cnc4cc(Cl)c(=O)[nH]c4c3)CC2)cn1 [Example 138, 5-{4-[(7-chloro-6-oxo-5H-1,5-naphthyridin-3-yl)methyl]piperazin-1-yl}-N-methylpyridine-2-carboxamide]	2.7 nM	2.1 nM
Cc1cc2ncc(CN3CCN(c4ccc(C(=O)NC5CC5)nc4)CC3)cc2[nH]c1=O [Example 63]	9.3 nM	3.2 nM
O=C(NC1COC1)c1ccc(N2CCN(Cc3cnc4cc(C5CC5)c(=O)[nH]c4c3)CC2)cn1 [Example 81]	5.9 nM	4.5 nM
CCc1cc2ncc(CN3CCN(c4ccc(C(=O)NC[C@@H](C)O)nc4)CC3)cc2[nH]c1=O [Example 57]	11 nM	3.6 nM
CCc1nc2ncc(CN3CCN(c4ccc(C(=O)NC)nc4)CC3)cc2[nH]c1=O [Example 91]	13 nM	13 nM
CCc1cc2nc(C#N)c(CN3CCN(c4ccc(C(=O)NC)nc4)CC3)cc2[nH]c1=O [Example 141]	6.4 nM	4.1 nM
C#Cc1cc2ncc(CN3CCN(c4ccc(C(=O)NC)nc4)CC3)cc2[nH]c1=O [Example 135]	15 nM	24 nM
CCc1cc2ncc([C@@H](C)N3CCN(c4ccc(C(=O)NC)nc4)CC3)cc2[nH]c1=O (single isomer, unassigned) [Example 20]	4.1 nM	
